Results from patent US20100249071A1, “Modulators of S1P and Methods of Making And Using” (Exelixis, Inc., priority 2009, published 2010).
Read-outs that look alike come from different tables or passages of the source.

Assays:
[1] = molecular target: T1, hS1P1R (hEdg1) membrane protein (Homo sapiens, UniProt P21453); experiment: hS1P1R GTPγS binding assay (Assay 3a); type: biochemical
T1 construct: purchased Lonza
Experimental: Assay 3a: The hS1P1R GTPγS binding assay was carried out at room temperature in 96 well non-binding surface assay plates. The reaction in each well contained 4 μg hS1P1R (hEdg1) membrane protein (Lonza), 30 μM GDP, 0.1 nM [^35S]GTPγS, 0.25% fatty acid free BSA, and serially diluted hS1P1R agonist compound in 200 μL assay buffer (25 mM Tris-HCl PH 7.9, 100 mM NaCl, 3 mM MgCl2, and 0.2 mM EGTA). After one hour of incubation, 0.9 mg of WGA (Wheat Germ Agglutinin) SPA beads in 50 μL of assay buffer was added to each well. The SPA beads were spun down after an additional one hour incubation. The radioactivity of the bound GTPγS was counted by reading the assay plate using a MicroBeta.

S1P1 = molecular target: T2, S1P1 (Homo sapiens, UniProt P21453); experiment: Tango β-arrestin recruitment assay in U2OS cells (Assay 2b); type: cell-based
T2 construct: host or cells: U2OS
Description: (§1) For the Tango™ β-arrestin recruitment assay, the cytoplasmic C-terminus of S1P1 was tethered to the tTA transcriptional activator with a linker that contains a cleavage site for the N1a protease from tobacco etch virus (TEV protease). The C-terminus of the human β-arrestin2 protein was fused to TEV protease. Binding of an agonist recruits the βl -arrestin-TEV fusion protein to the receptor resulting in cleavage of the linker and released of tTA to enter the nucleus and subsequently activated a tTA-dependent luciferase reporter gene.
Assay 2b: Alternatively, U2OS cells expressing the reporter gene and S1P1 (Invitrogen) were added to the wells of a 384-well white opaque bottom assay plate (PerkinElmer) at […]. The cells were serum starved for 48 h in Freestyle medium (Invitrogen). Test compounds were tested at maximum concentrations of 1 μM for the agonist assay. Compounds were diluted in DMSO (10 concentration points, 3-fold each) and added to the assay plate at a 1% final DMSO concentration. The efficacy control was 1 μM S1P (Avanti). For each compound, there were duplicate assay plates and each assay plate had duplicate wells per concentration point. The plate was incubated overnight at 37° C. The GeneBLAzer β-lactamase assay reagent (Invitrogen) was added and the plates were incubated for an additional 2 h at room temperature. Fluorescence was measured using an EnVision plate reader (PerkinElmer, Waltham, Mass.) at an excitation wavelength of 409 nm and emission wavelengths of 460 nm and 530 nm. The emission intensity at each wavelength was background subtracted against wells containing medium only and the F460 nm/F530 nm ratio determined for each concentration of the test compounds. Percent activity was calculated as [(test compound ratio−DMSO ratio)/(positive control ratio−DMSO ratio)*100], where the positive control and DMSO ratios are from cells incubated with the efficacy control 1 μM S1P and 1% DMSO, respectively. The percent activities were plotted against compound concentration to determine EC50 using XLFit (IDBS).

[2] = molecular target: T3, hS1PR5 (hEdg8) membrane protein (Homo sapiens, UniProt Q9H228); experiment: hS1P5R GTPγS binding assay (Assay 4); type: biochemical
T3 construct: expressed in transfected cells; host or cells: CHO
Experimental: The hS1PR5 GTPγS binding assay was carried out at room temperature in 96-well non-binding surface assay plates. The reaction in each well contained 5 μg hS1PR5 (hEdg8) membrane protein from CHO cells expressing hS1PR5, 30 μM GDP, 0.1 nM [^35S]GTPγS, 0.25% fatty acid free BSA, and serially-diluted Compound of the Invention in 200 μL assay buffer (25 mM Tris-HCl PH 7.9, 100 mM NaCl, 3 mM MgCl2, and 0.2 mM EGTA). After one hour of incubation, 0.9 mg of WGA (Wheat Germ Agglutinin) SPA beads in 50 μL of assay buffer was added to each well. The SPA beads were spun down after an additional one hour incubation. The radioactivity of the bound GTPγS was counted by reading the assay plate using a MicroBeta.

S1P3 = molecular target: T4, S1P3 (Homo sapiens, UniProt Q99500); experiment: S1P3 Tango β-arrestin recruitment assay in HEK293 cells (Assay 5); type: cell-based
T4 construct: host or cells: HEK293 (transient transfection)
Description: as §1
Assay 2a: Frozen HEK293 cells transiently transfected with receptor cDNAs for S1P1 (Invitrogen) are thawed and suspended in 10 mL of Pro293a-CDM culture medium (Invitrogen) supplemented with 4 mM L-Glutamine (Invitrogen), 1× Pen/Strep (100 units/mL penicillin and 100 μg/mL streptomycin, Invitrogen) and 0.1% fatty acid free BSA (Sigma-Aldrich). Cells are added to the wells of a 384-well white opaque bottom assay plate (PerkinElmer) at 3,000-6,000 cells per well and the plate is incubated for approximately 4 h in a 37° C. incubator. Test compounds are tested at maximum concentrations of 10 μM for the agonist assays. Compounds are diluted in DMSO (10 concentration points, 3-fold each) and added to the assay plate at a 1% final DMSO concentration. For each compound, there are duplicate assay plates and each assay plate has duplicate wells per concentration point. The plate is incubated at 37° C. for 30 min. The efficacy control is 5 μM S1P (Avanti). Following agonist addition, the assay plates are incubated in a 37° C. incubator for 16-18 h. Luciferase assay reagent is added and luminescence measured in an EnVision plate reader (PerkinElmer). To determine agonist activity, percent activity is calculated as [(test compound−background)/(positive control−background)*100], where background is the luminescence of the DMSO alone control and the positive control is the luminescence from cells incubated with the efficacy control 5 μM S1P. The percent activities are plotted against compound concentration to determine EC50 using XLFit (IDBS).
This assay was conducted using the procedures described in Assay 2a, replacing S1P1 with S1P3.

[3] = * = rEC50 measured rather than EC50, read-out: Assay 5 rEC50 (relative EC50, cells marked *)

T1 sequence (P21453 whole entry): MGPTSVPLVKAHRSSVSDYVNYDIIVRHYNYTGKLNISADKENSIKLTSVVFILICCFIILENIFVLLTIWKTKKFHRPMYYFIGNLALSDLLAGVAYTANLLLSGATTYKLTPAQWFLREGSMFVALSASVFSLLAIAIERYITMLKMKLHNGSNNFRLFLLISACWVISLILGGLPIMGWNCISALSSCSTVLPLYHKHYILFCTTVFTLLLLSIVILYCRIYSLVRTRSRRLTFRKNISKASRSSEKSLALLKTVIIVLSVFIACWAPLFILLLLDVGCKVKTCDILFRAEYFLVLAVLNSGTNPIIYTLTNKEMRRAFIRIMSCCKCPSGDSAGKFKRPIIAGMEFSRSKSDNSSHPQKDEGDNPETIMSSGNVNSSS
T3 sequence (Q9H228 whole entry): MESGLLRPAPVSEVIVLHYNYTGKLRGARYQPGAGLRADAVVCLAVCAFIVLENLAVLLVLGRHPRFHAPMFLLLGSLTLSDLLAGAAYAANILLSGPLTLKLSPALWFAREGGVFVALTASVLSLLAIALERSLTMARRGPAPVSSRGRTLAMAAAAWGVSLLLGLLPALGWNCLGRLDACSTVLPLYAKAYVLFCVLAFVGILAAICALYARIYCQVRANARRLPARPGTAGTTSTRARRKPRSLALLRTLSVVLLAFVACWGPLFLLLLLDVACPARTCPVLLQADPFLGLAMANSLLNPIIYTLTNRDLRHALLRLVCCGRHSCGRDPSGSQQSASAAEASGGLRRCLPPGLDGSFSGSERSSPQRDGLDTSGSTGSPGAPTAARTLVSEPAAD
T4 sequence (P32121 whole entry): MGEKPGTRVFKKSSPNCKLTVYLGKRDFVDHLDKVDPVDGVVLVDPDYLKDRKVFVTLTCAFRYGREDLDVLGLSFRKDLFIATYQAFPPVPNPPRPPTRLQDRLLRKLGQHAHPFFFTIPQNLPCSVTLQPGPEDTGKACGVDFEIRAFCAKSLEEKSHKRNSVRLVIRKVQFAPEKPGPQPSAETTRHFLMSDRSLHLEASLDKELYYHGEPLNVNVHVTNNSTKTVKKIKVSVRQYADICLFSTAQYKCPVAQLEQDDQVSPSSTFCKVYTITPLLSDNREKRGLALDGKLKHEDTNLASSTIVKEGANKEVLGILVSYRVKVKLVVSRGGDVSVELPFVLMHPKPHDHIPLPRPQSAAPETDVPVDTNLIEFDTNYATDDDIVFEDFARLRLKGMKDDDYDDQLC
T4 sequence (Q99500 whole entry): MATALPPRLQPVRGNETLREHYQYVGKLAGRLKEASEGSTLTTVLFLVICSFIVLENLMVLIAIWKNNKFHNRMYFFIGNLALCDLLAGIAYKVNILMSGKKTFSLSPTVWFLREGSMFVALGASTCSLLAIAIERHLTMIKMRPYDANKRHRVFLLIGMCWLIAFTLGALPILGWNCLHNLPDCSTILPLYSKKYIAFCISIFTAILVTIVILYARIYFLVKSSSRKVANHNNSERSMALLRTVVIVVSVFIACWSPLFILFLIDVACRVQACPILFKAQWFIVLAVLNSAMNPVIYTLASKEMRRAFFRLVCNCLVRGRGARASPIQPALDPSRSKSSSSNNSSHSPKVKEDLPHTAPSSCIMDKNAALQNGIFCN
T2 sequence (P32121 whole entry): as the sequence (P32121 whole entry) above
T2 sequence (P21453 whole entry): as the sequence (P21453 whole entry) above

## CC(C)Cc1ccc(-c2nnc(-c3cc(F)c(OC[C@H](N)CO)cc3Cl)s2)cc1 [Entry 3, (2R)-2-amino-3-[(5-chloro-2-fluoro-4-{5-[4-(2-methylpropyl)phenyl]-1,3,4-thiadiazol-2-yl}phenyl)oxy]propan-1-ol]
[1]
  EC50: 250 to 2800 nM
S1P1; read-out: Assay 2b EC50
  EC50: 50 to 250 nM
[2]
  EC50: 250 to 2800 nM
S1P3; read-out: Assay 5 EC50
  EC50: > 10000 nM

## CC(C)N(C)c1cc(-c2nnc(-c3cc(F)c(OCC(N)CO)cc3Cl)s2)cc(Cl)n1 (centres unmarked) [Entry 5, 2-amino-3-{[5-chloro-4-(5-{2-chloro-6-[methyl(1-methylethyl)amino]pyridin-4-yl}-1,3,4-thiadiazol-2-yl)-2-fluorophenyl]oxy}propan-1-ol]
[1]
  EC50: 10 to 50 nM
S1P1; read-out: Assay 2b EC50
  EC50: ≤ 10 nM
[2]
  EC50: 250 to 2800 nM
S1P3; read-out: Assay 5 EC50
  EC50: ≤ 250 nM

## CC(C)Oc1ncc(-c2nnc(-c3cc(F)c(OCC(N)CO)cc3Cl)s2)cc1Cl (centres unmarked) [Entry 6, 2-amino-3-{[5-chloro-4-(5-{5-chloro-6-[(1-methylethyl)oxy]pyridin-3-yl}-1,3,4-thiadiazol-2-yl)-2-fluorophenyl]oxy}propan-1-ol]
[1]
  EC50: 10 to 50 nM
S1P1; read-out: Assay 2b EC50
  EC50: ≤ 10 nM
[2]
  EC50: 250 to 2800 nM
S1P3; read-out: Assay 5 EC50
  EC50: ≤ 250 nM

## CC(C)Oc1ccc(-c2nnc(-c3cc(F)c(OC[C@@H](N)CO)cc3Cl)s2)cc1Cl [Entry 10, (2S)-2-amino-3-{[5-chloro-4-(5-{3-chloro-4-[(1-methylethyl)oxy]phenyl}-1,3,4-thiadiazol-2-yl)-2-fluorophenyl]oxy}propan-1-ol]
[1]
  EC50: ≤ 10 nM
S1P1; read-out: Assay 2b EC50
  EC50: ≤ 10 nM
[2]
  EC50: 10 to 50 nM
S1P3; read-out: Assay 5 EC50
  EC50: ≤ 250 nM

## CC(C)Oc1ccc(-c2nnc(-c3cc(F)c(OC[C@@H](N)CO)cc3Cl)s2)cc1Br [Entry 11, (2S)-2-amino-3-{[4-(5-{3-bromo-4-[(1-methylethyl)oxy]phenyl}-1,3,4-thiadiazol-2-yl)-5-chloro-2-fluorophenyl]oxy}propan-1-ol]
[1]
  EC50: ≤ 10 nM
S1P1; read-out: Assay 2b EC50
  EC50: ≤ 10 nM
[2]
  EC50: 10 to 50 nM
S1P3; read-out: Assay 5 EC50
  EC50: ≤ 250 nM

## CC(C)Oc1ccc(-c2nnc(-c3cc(F)c(OC[C@@H](N)COP(=O)(O)O)cc3Cl)s2)cc1Br [Entry 12, (2R)-2-amino-3-{[4-(5-{3-bromo-4-[(1-methylethyl)oxy]phenyl}-1,3,4-thiadiazol-2-yl)-5-chloro-2-fluorophenyl]oxy}propyl dihydrogen phosphate]
[1]
  EC50: ≤ 10 nM
S1P1; read-out: Assay 2b EC50
  EC50: ≤ 10 nM
[2]
  EC50: ≤ 10 nM
S1P3; [3]
  EC50: ≤ 250 nM

## CC(C)Oc1ccc(-c2nnc(-c3cc(F)c(OC[C@H](N)COP(=O)(O)O)cc3Cl)s2)cc1Cl [Entry 13, (2S)-2-amino-3-{[5-chloro-4-(5-{3-chloro-4-[(1-methylethyl)oxy]phenyl}-1,3,4-thiadiazol-2-yl)-2-fluorophenyl]oxy}propyl dihydrogen phosphate]
[1]
  EC50: ≤ 10 nM
S1P1; read-out: Assay 2b EC50
  EC50: ≤ 10 nM
[2]
  EC50: ≤ 10 nM
S1P3; read-out: Assay 5 EC50
  EC50: ≤ 250 nM

## N[C@H](CO)COc1cc(Cl)c(-c2nnc(-c3cccc(Cl)c3)s2)cc1F [Entry 15, (2R)-2-amino-3-({5-chloro-4-[5-(3-chlorophenyl)-1,3,4-thiadiazol-2-yl]-2-fluorophenyl}oxy)propan-1-ol]
[1]
  EC50: 250 to 2800 nM
S1P1; read-out: Assay 2b EC50
  EC50: 10 to 50 nM
[2]
  EC50: 250 to 2800 nM
S1P3; read-out: Assay 5 EC50
  EC50: > 10000 nM

## CC(C)Oc1ccc(-c2nnc(-c3cc(F)c(OC[C@@H](N)COP(=O)(O)O)cc3Cl)s2)cc1Cl [Entry 16, (2R)-2-amino-3-{[5-chloro-4-(5-{3-chloro-4-[(1-methylethyl)oxy]phenyl}-1,3,4-thiadiazol-2-yl)-2-fluorophenyl]oxy}propyl dihydrogen phosphate]
[1]
  EC50: ≤ 10 nM
S1P1; read-out: Assay 2b EC50
  EC50: ≤ 10 nM
[2]
  EC50: 10 to 50 nM
S1P3; [3]
  EC50: ≤ 250 nM

## CCCOc1ccc(-c2nnc(-c3cc(F)c(OC[C@H](N)CO)cc3Cl)s2)cc1Cl [Entry 17, (2R)-2-amino-3-[(5-chloro-4-{5-[3-chloro-4-(propyloxy)phenyl]-1,3,4-thiadiazol-2-yl}-2-fluorophenyl)oxy]propan-1-ol]
[1]
  EC50: 10 to 50 nM
S1P1; read-out: Assay 2b EC50
  EC50: 50 to 250 nM
[2]
  EC50: 50 to 250 nM
S1P3; read-out: Assay 5 EC50
  EC50: > 10000 nM

## CC(C)Oc1ccc(-c2nnc(-c3cc(F)c(OC[C@H](N)CO)cc3Cl)s2)cc1C(F)(F)F [Entry 18, (2R)-2-amino-3-{[5-chloro-2-fluoro-4-(5-{4-[(1-methylethyl)oxy]-3-(trifluoromethyl)phenyl}-1,3,4-thiadiazol-2-yl)phenyl]oxy}propan-1-ol]
[1]
  EC50: ≤ 10 nM
S1P1; read-out: Assay 2b EC50
  EC50: 10 to 50 nM
[2]
  EC50: 10 to 50 nM
S1P3; read-out: Assay 5 EC50
  EC50: > 10000 nM

## CC(C)N(C)c1ccc(-c2nnc(-c3cc(F)c(OCC(N)CO)cc3Cl)s2)cn1 (centres unmarked) [Entry 36, 2-amino-3-{[5-chloro-2-fluoro-4-(5-{6-[methyl(1-methylethyl)amino]pyridin-3-yl}-1,3,4-thiadiazol-2-yl)phenyl]oxy}propan-1-ol]
[1]
  EC50: 250 to 2800 nM
S1P1; read-out: Assay 2b EC50
  EC50: ≤ 10 nM
S1P3; read-out: Assay 5 EC50
  EC50: ≤ 250 nM

## N[C@H](CO)COc1cc(Cl)c(-c2nnc(-c3cc(Cl)cc(Cl)c3)s2)cc1F [Entry 92, (2R)-2-amino-3-({5-chloro-4-[5-(3,5-dichlorophenyl)-1,3,4-thiadiazol-2-yl]-2-fluorophenyl}oxy)propan-1-ol]
[1]
  EC50: 250 to 2800 nM
S1P1; read-out: Assay 2b EC50
  EC50: 250 to 2800 nM
S1P3; read-out: Assay 5 EC50
  EC50: > 10000 nM

## Cc1cc(-c2nnc(-c3cc(F)c(OC[C@H](N)[C@H](C)OP(=O)(O)O)cc3Cl)s2)ccc1OC(C)C [Entry 104, (1S,2S)-2-amino-3-{[5-chloro-2-fluoro-4-(5-{3-methyl-4-[(1-methylethyl)oxy]phenyl}-1,3,4-thiadiazol-2-yl)phenyl]oxy}-1-methylpropyl dihydrogen phosphate]
S1P1; * = rEC50 measured rather than EC50, read-out: Assay 2b rEC50 (relative EC50, cells marked *)
  EC50: ≤ 10 nM
[2]
  EC50: ≤ 10 nM
S1P3; read-out: Assay 5 EC50
  EC50: > 250 nM

## Cc1nc(-c2nnc(-c3cc(F)c(OC[C@H](N)[C@H](C)O)cc3Cl)s2)ccc1NC(C)C [Entry 105, (2S,3S)-3-amino-4-(5-chloro-2-fluoro-4-{5-[6-methyl-5-(propan-2-ylamino)pyridin-2-yl]-1,3,4-thiadiazol-2-yl}phenoxy)butan-2-ol]
S1P1; read-out: Assay 2b EC50
  EC50: 50 to 250 nM
[2]
  EC50: 50 to 250 nM
S1P3; read-out: Assay 5 EC50
  EC50: > 250 nM

## Cc1cc(NC(C)C)cc(-c2nnc(-c3cc(F)c(OC[C@H](N)[C@H](C)O)cc3Cl)s2)n1 [Entry 106, (2S,3S)-3-amino-4-(5-chloro-2-fluoro-4-{5-[6-methyl-4-(propan-2-ylamino)pyridin-2-yl]-1,3,4-thiadiazol-2-yl}phenoxy)butan-2-ol]
S1P1; read-out: Assay 2b EC50
  EC50: 50 to 250 nM
[2]
  EC50: 50 to 250 nM
S1P3; read-out: Assay 5 EC50
  EC50: > 250 nM
